Test results published in the NIST ThermoML archive (doi:10.1021/je800787t).
Numbers after ± are expanded uncertainties.

Tests used:
[1] = refractive index (other wavelength) (dimensionless); settings: 101.33 kPa, Liquid, Wavelength=632.8 nm, Standard Abbe refractometry
[2] = refractive index (other wavelength) (dimensionless); xn = mol fraction of the nth substance listed; settings: 101.3 kPa, Liquid, Wavelength=632.8 nm, Standard Abbe refractometry

CCCCCCCCCC [decane]
[1]
Settings | refractive index
278.87 K | 1.4169 ± 0.0006
280.1 K | 1.4163 ± 0.0006
281.3 K | 1.4158 ± 0.0006
282.48 K | 1.4153 ± 0.0006
283.62 K | 1.4148 ± 0.0006
284.82 K | 1.4142 ± 0.0006
286.06 K | 1.4137 ± 0.0006
287.23 K | 1.4132 ± 0.0006

CCCCCCCCCCCCCC [tetradecane]
[1]
Settings | refractive index
299.64 K | 1.4248 ± 0.0006
300.67 K | 1.4244 ± 0.0006
301.68 K | 1.424 ± 0.0006
302.71 K | 1.4235 ± 0.0006
303.75 K | 1.4231 ± 0.0006
304.75 K | 1.4226 ± 0.0006
305.78 K | 1.4222 ± 0.0006
306.86 K | 1.4218 ± 0.0006
307.91 K | 1.4213 ± 0.0006

CCCCCCCCCCCCCC [tetradecane] + COC(=O)OC
[2], 308.14 K
Settings | refractive index
x2 = 0 | 1.4235 ± 0.0008
x2 = 0.1 | 1.4179 ± 0.0008
x2 = 0.201 | 1.4145 ± 0.0008
x2 = 0.3 | 1.4107 ± 0.0008
x2 = 0.399 | 1.4067 ± 0.0008
x2 = 0.5 | 1.4019 ± 0.0008
x2 = 0.6 | 1.3966 ± 0.0008
x2 = 0.708 | 1.3898 ± 0.0008
x2 = 0.801 | 1.3826 ± 0.0008
x2 = 0.899 | 1.3729 ± 0.0008

COC(=O)OC [dimethyl carbonate]
[1]
Settings | refractive index
277.34 K | 1.3749 ± 0.0006
278.7 K | 1.3743 ± 0.0006
280.06 K | 1.3737 ± 0.0006
281.54 K | 1.373 ± 0.0006
282.92 K | 1.3724 ± 0.0006
284.24 K | 1.3718 ± 0.0006
285.53 K | 1.3712 ± 0.0006
286.93 K | 1.3706 ± 0.0006
299.64 K | 1.3647 ± 0.0006
300.69 K | 1.3642 ± 0.0006
301.77 K | 1.3637 ± 0.0006
302.82 K | 1.3632 ± 0.0006
303.91 K | 1.3627 ± 0.0006
304.99 K | 1.3622 ± 0.0006
306.04 K | 1.3617 ± 0.0006
307.11 K | 1.3612 ± 0.0006
308.14 K | 1.3607 ± 0.0006

COC(=O)OC [dimethyl carbonate] + CCCCCCCCCCCCCC
Settings | refractive index
[2], 308.14 K, x1 = 1 | 1.3632 ± 0.0008

CCCCCCCCCC [decane] + COC(=O)OC
[2], 287.95 K
Settings | refractive index
x2 = 0.101 | 1.4095 ± 0.0008
x2 = 0.204 | 1.4062 ± 0.0008
x2 = 0.3 | 1.403 ± 0.0008
x2 = 0.401 | 1.3995 ± 0.0008
x2 = 0.501 | 1.3958 ± 0.0008
x2 = 0.605 | 1.3917 ± 0.0008
x2 = 0.686 | 1.388 ± 0.0008
x2 = 0.8 | 1.3821 ± 0.0008
x2 = 0.903 | 1.3762 ± 0.0008
